# Measured values reported in ChEMBL document CHEMBL3860108, “Substituent Effects on Drug-Receptor H-bond Interactions: Correlations Useful for the Design of Kinase Inhibitors” (J Med Chem, 2016).
# pIC50: −log10 of the molar value.
# Molecular target: T1, Serine/threonine-protein kinase TNNI3K (Homo sapiens, UniProt Q59H18)
# T1 sequence (Q59H18 whole entry): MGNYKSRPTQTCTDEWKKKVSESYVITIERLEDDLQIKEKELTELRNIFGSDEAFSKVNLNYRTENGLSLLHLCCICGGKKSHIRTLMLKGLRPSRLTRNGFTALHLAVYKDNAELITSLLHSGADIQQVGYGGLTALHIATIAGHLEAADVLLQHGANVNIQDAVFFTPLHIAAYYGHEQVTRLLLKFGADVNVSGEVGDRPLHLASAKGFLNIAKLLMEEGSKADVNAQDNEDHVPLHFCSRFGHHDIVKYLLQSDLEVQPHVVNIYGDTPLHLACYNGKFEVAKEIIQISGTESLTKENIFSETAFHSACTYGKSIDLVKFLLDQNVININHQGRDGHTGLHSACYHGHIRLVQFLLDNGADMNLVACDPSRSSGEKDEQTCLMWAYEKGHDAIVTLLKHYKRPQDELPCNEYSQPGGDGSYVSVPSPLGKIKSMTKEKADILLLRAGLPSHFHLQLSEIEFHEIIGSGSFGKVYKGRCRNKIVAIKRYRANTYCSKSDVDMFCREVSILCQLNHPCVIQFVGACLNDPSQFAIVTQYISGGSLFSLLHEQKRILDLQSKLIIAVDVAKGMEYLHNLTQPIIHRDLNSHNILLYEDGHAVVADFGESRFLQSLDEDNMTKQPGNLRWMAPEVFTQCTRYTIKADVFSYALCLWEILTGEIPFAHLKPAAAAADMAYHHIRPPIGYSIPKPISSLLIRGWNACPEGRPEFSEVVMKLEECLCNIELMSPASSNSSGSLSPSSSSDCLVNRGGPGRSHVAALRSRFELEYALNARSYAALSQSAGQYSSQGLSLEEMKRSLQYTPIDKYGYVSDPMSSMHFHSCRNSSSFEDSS
# Test: Displacement of 5-({[2-({[3-({4-[(5-hydroxy-2-methylphenyl)amino]-2-pyrimidinyl}amino)phenyl]carbonyl}amino)-ethyl]amino}carbonyl)-2-(6-hydroxy-3-oxo-3H-xanthen-9-yl)benzoic acid from His6-MBP-TEV-full length human TNNI3K expressed in Baculovirus expression system after 60 mins by fluorescence polarization assay
row,SMILES,pIC50
1,CCNc1ccc(S(=O)(=O)NC)cc1Nc1ncnc2[nH]ccc12,5.60
2,CNS(=O)(=O)c1ccc(N(C)C)c(Nc2cc(Nc3ccc(Cl)cc3)ncn2)c1,7.10
3,CNS(=O)(=O)c1ccc(N(C)C)c(Nc2ncnc3[nH]cc(-c4ccco4)c23)c1,> 8.00
4,CNS(=O)(=O)c1ccc(OCC(F)(F)F)c(Nc2cc(Nc3ccc(Cl)cc3)ncn2)c1,7.60
5,CNS(=O)(=O)c1ccc(F)c(Nc2ncnc3[nH]ccc23)c1,6.60
6,CNS(=O)(=O)c1ccc(C)c(Nc2cc(Nc3ccc(Cl)cc3)ncn2)c1,6.80
7,CNS(=O)(=O)c1ccc(N2CCC(F)(F)C2)c(Nc2ncnc3[nH]ccc23)c1,6.89
8,CNS(=O)(=O)c1ccc(-c2ccccc2)c(Nc2ncnc3[nH]ccc23)c1,6.70
9,CNS(=O)(=O)c1ccc(N2C(C)CCC2C)c(Nc2ncnc3[nH]ccc23)c1 (stereo not given),7.70
10,CNS(=O)(=O)c1ccc(N(C)C)c(Nc2ncnc(Nc3ccc(Cl)cc3)n2)c1,8.00
11,CNS(=O)(=O)c1ccc(N(C)C)c(Nc2ncnc3ccc([N+](=O)[O-])cc23)c1,5.60
12,CNS(=O)(=O)c1ccc(N2C(C)CCC2C)c(Nc2cc(Nc3ccc(Cl)cc3)ncn2)c1 (stereo not given),7.10
13,CNS(=O)(=O)c1ccc(F)c(Nc2cc(Nc3ccc(Cl)cc3)ncn2)c1,6.70
14,CNS(=O)(=O)c1ccc(N2CCCC2C)c(Nc2ncnc3[nH]ccc23)c1 (stereo not given),6.89
15,CNS(=O)(=O)c1ccc(OCC(F)(F)F)c(Nc2ncnc3[nH]ccc23)c1,7.80
16,CNS(=O)(=O)c1cccc(Nc2cc(Nc3ccc(Cl)cc3)ncn2)c1,7.10
17,CNS(=O)(=O)c1ccc(N2CCCC2C)c(Nc2cc(Nc3ccc(Cl)cc3)ncn2)c1 (stereo not given),6.60
18,CNS(=O)(=O)c1ccc(N(C)C)c(Nc2ncnc3[nH]cnc23)c1,7.80
19,CNS(=O)(=O)c1ccc(N)c(Nc2cc(Nc3ccc(Cl)cc3)ncn2)c1,6.10
20,CNS(=O)(=O)c1ccc(SC)c(Nc2ncnc3[nH]ccc23)c1,6.89
21,CNS(=O)(=O)c1ccc(N2CCCC(F)(F)C2)c(Nc2ncnc3[nH]ccc23)c1,> 8.00
22,CNS(=O)(=O)c1ccc(N(C)C)c(Nc2ncnc3ncccc23)c1,5.30
23,CCCNc1ccc(S(=O)(=O)NC)cc1Nc1cc(Nc2ccc(Cl)cc2)ncn1,5.80
24,CNS(=O)(=O)c1ccc(N2CCC[C@@H]2C(F)(F)F)c(Nc2cc(Nc3ccc(Cl)cc3)ncn2)c1,7.20

row,SMILES,pIC50
1,CNS(=O)(=O)c1ccc(N2CCC(F)(F)C2)c(Nc2cc(Nc3ccc(Cl)cc3)ncn2)c1,6.00
2,CNS(=O)(=O)c1ccc(O)c(Nc2ncnc3[nH]ccc23)c1,7.40
3,CNS(=O)(=O)c1ccc(OC(F)(F)F)c(Nc2cc(Nc3ccc(Cl)cc3)ncn2)c1,7.49
4,CNS(=O)(=O)c1ccc(Cl)c(Nc2cc(Nc3ccc(Cl)cc3)ncn2)c1,6.89
5,CNS(=O)(=O)c1ccc(N2CCCC2)c(Nc2cc(Nc3ccc(Cl)cc3)ncn2)c1,5.89
6,CNS(=O)(=O)c1ccc(SC)c(Nc2cc(Nc3ccc(Cl)cc3)ncn2)c1,6.40
7,CNS(=O)(=O)c1ccc(OC(F)(F)F)c(Nc2ncnc3[nH]ccc23)c1,7.30
8,CNS(=O)(=O)c1ccc(N(C)C)c(Nc2ncnc3ccc(Cl)cc23)c1,6.40
9,CNS(=O)(=O)c1ccc(N2CCCCC2)c(Nc2ncnc3[nH]ccc23)c1,7.89
10,CCN(C)c1ccc(S(=O)(=O)NC)cc1Nc1cc(Nc2ccc(Cl)cc2)ncn1,7.20
11,CCN(C)c1ccc(S(=O)(=O)NC)cc1Nc1ncnc2[nH]ccc12,7.49
12,CCOc1ccc(S(=O)(=O)NC)cc1Nc1cc(Nc2ccc(Cl)cc2)ncn1,7.30
13,CNS(=O)(=O)c1ccc(N(C)C)c(Nc2ncnc3[nH]c4ccccc4c23)c1,7.30
14,CCNc1ccc(S(=O)(=O)NC)cc1Nc1cc(Nc2ccc(Cl)cc2)ncn1,5.49
15,CNS(=O)(=O)c1ccc(N2CCCC2)c(Nc2ncnc3[nH]ccc23)c1,6.49
16,CNS(=O)(=O)c1ccc(OC)c(Nc2ncnc3[nH]ccc23)c1,7.00
17,CNS(=O)(=O)c1ccc(N2CCCC(F)(F)C2)c(Nc2cc(Nc3ccc(Cl)cc3)ncn2)c1,7.40
18,CNS(=O)(=O)c1ccc(OC)c(Nc2cc(Nc3ccc(Cl)cc3)ncn2)c1,7.30
19,CCOc1ccc(S(=O)(=O)NC)cc1Nc1ncnc2[nH]ccc12,7.49
20,CCCNc1ccc(S(=O)(=O)NC)cc1Nc1ncnc2[nH]ccc12,5.60
21,CNc1ccc(S(=O)(=O)NC)cc1Nc1cc(Nc2ccc(Cl)cc2)ncn1,5.60
22,CNS(=O)(=O)c1ccc(N(C)CC(F)(F)F)c(Nc2cc(Nc3ccc(Cl)cc3)ncn2)c1,7.40
23,CNS(=O)(=O)c1ccc(O)c(Nc2cc(Nc3ccc(Cl)cc3)ncn2)c1,6.80
24,CNS(=O)(=O)c1ccc(N(C)CC(F)(F)F)c(Nc2ncnc3[nH]ccc23)c1,8.00

# Molecular target: Serine/threonine-protein kinase B-raf (Homo sapiens, UniProt P15056, V600E)
# Sequence (P15056 2-766 V600E limits assumed): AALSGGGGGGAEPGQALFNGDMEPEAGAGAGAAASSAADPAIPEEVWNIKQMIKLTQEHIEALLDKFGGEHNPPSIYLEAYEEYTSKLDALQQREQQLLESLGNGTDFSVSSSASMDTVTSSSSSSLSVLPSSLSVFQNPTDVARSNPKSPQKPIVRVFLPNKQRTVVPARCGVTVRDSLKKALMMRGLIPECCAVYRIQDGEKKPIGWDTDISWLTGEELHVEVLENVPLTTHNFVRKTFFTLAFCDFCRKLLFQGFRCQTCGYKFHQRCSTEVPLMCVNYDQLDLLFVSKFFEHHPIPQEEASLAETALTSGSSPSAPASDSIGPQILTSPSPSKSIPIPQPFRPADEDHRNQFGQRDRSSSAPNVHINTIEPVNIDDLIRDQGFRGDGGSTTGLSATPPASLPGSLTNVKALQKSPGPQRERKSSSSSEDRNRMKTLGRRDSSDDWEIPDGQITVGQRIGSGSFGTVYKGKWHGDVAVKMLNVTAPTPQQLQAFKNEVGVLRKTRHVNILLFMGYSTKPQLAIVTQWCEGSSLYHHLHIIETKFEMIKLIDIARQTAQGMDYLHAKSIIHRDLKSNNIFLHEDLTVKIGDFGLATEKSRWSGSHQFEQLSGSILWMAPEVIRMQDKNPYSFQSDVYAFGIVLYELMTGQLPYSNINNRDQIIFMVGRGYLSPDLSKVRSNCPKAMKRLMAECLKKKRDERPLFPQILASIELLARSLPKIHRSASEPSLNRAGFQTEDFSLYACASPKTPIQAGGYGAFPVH
# Test: Inhibition of His6-tagged full length BRAF V600E mutant (2 to 766 residues) (unknown origin) expressed in Baculovirus expression system by BRAMA method
row,SMILES,pIC50
1,CNS(=O)(=O)c1ccc(N(C)C)c(Nc2ncnc3ccc([N+](=O)[O-])cc23)c1,5.20
2,CNS(=O)(=O)c1ccc(N(C)C)c(Nc2ncnc3ccc(Cl)cc23)c1,6.40
